{"source": "patent US8633182B2", "about": "“Indanyloxyphenylcyclopropanecarboxylic acids” (Boehringer Ingelheim International GmbH, priority 2012, dated 2014)", "data": [{"biological_target": "human GPR40 receptor (Homo sapiens, UniProt O14842)", "sequence (O14842 whole entry)": "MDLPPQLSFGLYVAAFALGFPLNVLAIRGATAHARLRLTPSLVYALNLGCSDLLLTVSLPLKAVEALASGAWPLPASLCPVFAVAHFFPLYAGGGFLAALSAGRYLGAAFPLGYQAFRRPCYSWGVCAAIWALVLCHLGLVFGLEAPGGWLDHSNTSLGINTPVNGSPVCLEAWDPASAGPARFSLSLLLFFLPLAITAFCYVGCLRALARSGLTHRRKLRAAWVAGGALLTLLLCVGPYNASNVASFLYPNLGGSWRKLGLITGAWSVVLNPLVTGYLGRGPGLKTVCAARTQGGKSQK", "test": "IP1 accumulation measurements using the IPOne assay system in 1321N1 cells stably expressing human GPR40 receptor", "type": "cell-based", "settings": "IP1 accumulation (HTRF), 1321N1 cells stably expressing human GPR40, 1 hour stimulation at 37° C.", "protocol": "IP1 accumulation measurements using the IPOne assay system—1321N1 cells stably expressing human GPR40 receptor (Euroscreen, Belgium) are seeded 24 h before the assay in black clear-bottom collagen-coated or white 384-well plates in culture medium containing 10% FCS, 1% Na-Pyruvate and 400 μg/mL G418. IP1 is assayed according to the Manufacturer's description (Cisbio Bioassays, France). In brief, the assay is started by substitution of the culture medium by stimulation buffer (Hepes 10 mM, CaCl2 1 mM, MgCl2 0.5 mM, KCl 4.2 mM, NaCl 146 mM and glucose 5.5 mM, pH 7.4) without LiCl or with […]. Cells are stimulated for 1 hour at 37° C., 5 or 10% CO2 by addition of the compounds that are diluted in stimulation buffer containing LiCl yielding a final LiCl concentration of 50 mM. Assays are stopped by adding HTRF-conjugates (IP1-d2 and Anti-IP1 cryptate Tb) and lysis buffer, provided by the manufacturer. After an incubation time of 1 hour at room temperature plates are measured using an EnVision™, Perkin Elmer. The obtained fluorescence ratios at […] are then used to calculate the pEC50 values using GraphPad Prism 5 (Graphpad Software Inc, USA) or Assay Explorer 3.3 Software (Accelrys, Inc.) by interpolation using an IP1 reference curve and subsequent sigmoidal curve fitting allowing for a variable hill slope.", "units": {"EC50": "nM"}, "values": [{"smiles": "Cc1cc(OCC2CN(S(C)(=O)=O)C2)cc(C)c1-c1ccc(F)c2c1CC[C@H]2Oc1ccc([C@H]2C[C@@H]2C(=O)O)cc1", "note": "[Example 20, (1S,2S)-2-(4-{(R)-7-Fluoro-4-[4-(1-methanesulfonyl-azetidin-3-ylmethoxy)-2,6-dimethyl-phenyl]-indan-1-yloxy}-phenyl)-cyclopropanecarboxylic acid]", "EC50": 10}, {"smiles": "O=C(O)C1CC1c1ccc(O[C@@H]2CCc3c2cccc3C(F)(F)F)cc1F", "note": "(stereo in doubt) [Example 5, 2-[4-((R)-4-Trifluoromethyl-indan-1-yloxy)-2-fluorophenyl]-trans-cyclopropanecarboxylic acid]", "EC50": 85}, {"smiles": "COc1cc(O[C@@H]2CCc3c(OC(F)(F)F)cccc32)ccc1[C@@H]1C[C@H]1C(=O)O", "note": "[Example 8]", "EC50": 407}, {"smiles": "O=C(O)C1CC1c1ccc(O[C@@H]2CCc3c(OC(F)(F)F)cccc32)cc1F", "note": "(stereo in doubt) [Example 6, 2-[4-((R)-4-Trifluoromethoxy-indan-1-yloxy)-2-fluorophenyl]-trans-cyclopropanecarboxylic acid]", "EC50": 98}, {"smiles": "O=C(O)C1CC1c1ccc(OC2CCc3c2ccc(C(F)(F)F)c3-c2ccc(OCC3(O)CCOCC3)cc2)cc1", "note": "(stereo not shown) [Example 63]", "EC50": 7}, {"smiles": "O=C(O)[C@H]1C[C@@H]1c1ccc(O[C@@H]2CCc3cccc(F)c32)cc1", "note": "[Example 16, (1S,2S)-2-[4-((R)-7-Fluoro-indan-1-yloxy)-phenyl]-cyclopropanecarboxylic acid]", "EC50": 304}, {"smiles": "Cc1cc(OCC(C)(C)O)cc(C)c1-c1ccc(F)c2c1CC[C@H]2Oc1ccc([C@H]2C[C@@H]2C(=O)O)cc1", "note": "[Example 27, (1S,2S)-2-(4-{(R)-7-Fluoro-4-[4-(2-hydroxy-2-methyl-propoxy)-2,6-dimethyl-phenyl]-indan-1-yloxy}-phenyl)-cyclopropanecarboxylic acid]", "EC50": 8}, {"smiles": "O=C(O)[C@H]1C[C@@H]1c1ccc(O[C@@H]2CCc3c(-c4ccccc4-c4cocn4)ccc(F)c32)cc1", "note": "[Example 61, (1S,2S)-2-(4-((1R)-7-fluoro-4-(2-(oxazol-4-yl)phenyl)-2,3-dihydro-1H-inden-1-yloxy)-phenyl)cyclopropanecarboxylic acid]", "EC50": 28}, {"smiles": "Cc1cc(OC[C@H](C)CS(C)(=O)=O)cc(C)c1-c1ccc(F)c2c1CC[C@H]2Oc1ccc([C@H]2C[C@@H]2C(=O)O)cc1", "note": "[Example 28, (1S,2S)-2-(4-{(R)-7-Fluoro-4-[4-((S)-3-methanesulfonyl-2-methyl-propoxy)-2,6-dimethyl-phenyl]-indan-1-yloxy}-phenyl)-cyclopropanecarboxylic acid]", "EC50": 6}, {"smiles": "Cc1cc(OC[C@@H](C)CS(C)(=O)=O)cc(C)c1-c1ccc(F)c2c1CC[C@H]2Oc1ccc([C@H]2C[C@@H]2C(=O)O)cc1", "note": "[Example 29, (1S,2S)-2-(4-{(R)-7-Fluoro-4-[4-((R)-3-methanesulfonyl-2-methyl-propoxy)-2,6-dimethyl-phenyl]-indan-1-yloxy}-phenyl)-cyclopropanecarboxylic acid]", "EC50": 7}, {"smiles": "Cc1cc(OCC2CCS(=O)(=O)CC2)cc(C)c1-c1ccc(F)c2c1CC[C@H]2Oc1ccc([C@H]2C[C@@H]2C(=O)O)cc1", "note": "[Example 21]", "EC50": 7}, {"smiles": "Cc1cc(OCCCS(C)(=O)=O)cc(C)c1-c1ccc(F)c2c1CC[C@H]2Oc1ccc([C@H]2C[C@@H]2C(=O)O)cc1", "note": "[Example 11]", "EC50": 9}, {"smiles": "Cc1cc(OCC2(CO)CC2)cc(C)c1-c1ccc(F)c2c1CC[C@H]2Oc1ccc([C@H]2C[C@@H]2C(=O)O)cc1", "note": "[Example 32]", "EC50": 4}, {"smiles": "Cc1cc(-c2nc(C)n(CC(C)(C)O)n2)cc(C)c1-c1ccc(F)c2c1CC[C@H]2Oc1ccc([C@H]2C[C@@H]2C(=O)O)cc1", "note": "[Example 41, (1S,2S)-2-[4-((R)-7-Fluoro-4-{4-[1-(2-hydroxy-2-methyl-propyl)-5-methyl-1H-[1,2,4]triazol-3-yl]-2,6-dimethyl-phenyl}-indan-1-yloxy)-phenyl]-cyclopropanecarboxylic acid]", "EC50": 2}, {"smiles": "Cc1cc(OC2CCOCC2)cc(C)c1-c1c(C#N)ccc2c1CC[C@H]2Oc1ccc([C@H]2C[C@@H]2C(=O)O)cc1", "note": "[Example 38, (1S,2S)-2-(4-{(R)-5-Cyano-4-[2,6-dimethyl-4-(tetrahydro-pyran-4-yloxy)-phenyl]-indan-1-yloxy}-phenyl)-cyclopropane-carboxylic acid]", "EC50": 40}, {"smiles": "Cn1ccc2c(-c3ccc(F)c4c3CC[C@H]4Oc3ccc([C@H]4C[C@@H]4C(=O)O)cc3)cccc21", "note": "[Example 53]", "EC50": 13}, {"smiles": "Cc1cc(OCCC(C)(C)O)cc(C)c1-c1ccc(F)c2c1CC[C@H]2Oc1ccc([C@H]2C[C@@H]2C(=O)O)cc1", "note": "[Example 17, (1S,2S)-2-(4-{(R)-7-Fluoro-4-[4-(3-hydroxy-3-methyl-butoxy)-2,6-dimethyl-phenyl]-indan-1-yloxy}-phenyl)-cyclopropanecarboxylic acid]", "EC50": 4}, {"smiles": "Cc1cc(O[C@@H]2CCN(S(C)(=O)=O)C2)cc(C)c1-c1c(C#N)ccc2c1CC[C@H]2Oc1ccc([C@H]2C[C@@H]2C(=O)O)cc1", "note": "[Example 37]", "EC50": 32}, {"smiles": "Cc1c(C#N)cccc1-c1ccc(F)c2c1CC[C@H]2Oc1ccc([C@H]2C[C@@H]2C(=O)O)cc1", "note": "[Example 54]", "EC50": 5}, {"smiles": "Cc1cc(OC(C)(C)CO)cc(C)c1-c1ccc(F)c2c1CC[C@H]2Oc1ccc([C@H]2C[C@@H]2C(=O)O)cc1", "note": "[Example 26]", "EC50": 8}, {"smiles": "N#Cc1ncccc1-c1ccc(F)c2c1CC[C@H]2Oc1ccc([C@H]2C[C@@H]2C(=O)O)cc1", "note": "[Example 55]", "EC50": 75}, {"smiles": "Cc1cc(-c2nnn(CC(C)(C)O)n2)cc(C)c1-c1ccc(F)c2c1CC[C@H]2Oc1ccc([C@H]2C[C@@H]2C(=O)O)cc1", "note": "[Example 43, (1S,2S)-2-[4-((R)-7-Fluoro-4-{4-[2-(2-hydroxy-2-methyl-propyl)-2H-tetrazol-5-yl]-2,6-dimethyl-phenyl}-indan-1-yloxy)-phenyl]-cyclopropanecarboxylic acid]", "EC50": 3}, {"smiles": "Cc1cc(OCCCS(C)(=O)=O)cc(C)c1-c1ccc(F)c2c1CC[C@H]2Oc1ccc([C@@H]2C[C@H]2C(=O)O)cc1", "note": "[Example 12, (1R,2R)-2-(4-{(R)-7-Fluoro-4-[4-(3-methanesulfonyl-propoxy)-2,6-dimethyl-phenyl]-indan-1-yloxy}-phenyl)-cyclopropanecarboxylic acid]", "EC50": 328}, {"smiles": "Cn1ncc2c(-c3ccc(F)c4c3CC[C@H]4Oc3ccc([C@H]4C[C@@H]4C(=O)O)cc3)cccc21", "note": "[Example 59]", "EC50": 17}, {"smiles": "COc1cc(O[C@@H]2CCc3c2cccc3C(F)(F)F)ccc1C1CC1C(=O)O", "note": "(stereo in doubt) [Example 7, 2-[4-((R)-4-Trifluoromethyl-indan-1-yloxy)-2-methoxyphenyl]-trans-cyclopropanecarboxylic acid]", "EC50": 531}]}]}
